Values of other authors, collected in patent publication US10736322B2, “Aqueous concentrated herbicidal compositions containing glyphosate salts and dicamba salts” (priority 2012, dated 2020).

Conditions: 25° C.

Q: With `O=C(O)CNCP(=O)(O)O` [Glyphosate acid, N-(phosphonomethyl)glycine] as the molecule, how does the solubility in water read?
A: 1.16 wt. %
